Measurements taken from US10611750B2, “Tetrahydroquinoline compositions as bet bromodomain inhibitors” (FORMA Therapeutics, Inc., priority 2013, dated 2020).

Columns and labels:
[1] = tested on: acute myelocytic leukemia (AML) cell line MV4-11; test: Oncology cell growth assay (3-day proliferation, CellTiter-Glo); assay type: cell-based; settings: Homo sapiens, MV4-11, 72 h, MV4-11 cells, 3000 cells/well, compounds listed under IC50 range headings, read-out: MV411 IC50 (gIC50, inhibition of proliferation)
Outline: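 MV4-11 AML cells (RPMI 1640, 10% FBS) plated at 3000 cells/well and exposed 72 h to compound at final 10 to 0.0045 μM (3-fold series). Viability read by CellTiter-Glo luminescence; gIC50 from four-parameter logistic fit between DMSO control and no-cell background.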

[2] = target: T1, BRD4 Bromodomain 1 (BRD4 BD1) (Homo sapiens, UniProt O60885); test: AlphaScreen binding assay, BRD4 BD1; settings: His-tagged BRD4 BD1 50 nM, biotinylated H4 (1-21) K5/8/12/16 tetra-acetylated peptide 50 nM, compounds listed under IC50 range headings
T1 construct: 44-168 and BRD4 BD2
Outline: (§1)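 Compound dilution series were mixed with His-tagged BRD4 bromodomain and biotinylated tetra-acetylated H4 (1-21) peptide at pH 7.3 (BD1 and peptide at 50 nM, BD2 and peptide at 100 nM). Donor and acceptor beads were then added, and plates were equilibrated at least 1 h before reading. IC50 values were fitted with a four-parameter logistic model.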

[3] = target: T2, BRD4 Bromodomain 2 (BRD4 BD2) (Homo sapiens, UniProt O60885); test: AlphaScreen binding assay, BRD4 BD2; settings: His-tagged BRD4 BD2 100 nM, biotinylated H4 (1-21) K5/8/12/16 tetra-acetylated peptide 100 nM, compounds listed under IC50 range headings
T2 construct: 333-460 were cloned, expressed, and purified to homogeneity
Outline: as §1

Row | IC50 [1] | IC50 [2] | IC50 [3] | SMILES
1 | > 1000 nM | 1000 to 10000 nM | ≥ 500 nM | CCCOc1c(-c2cc3ccccn3n2)ccc2c1CC[C@H](C)N2C(C)=O [I-118, (S)-1-(2-methyl-5-propoxy-6-(pyrazolo[1,5-a]pyridin-2-yl)-3,4-dihydroquinolin-1(2H)-yl)ethanone]
2 | > 1000 nM | 1000 to 10000 nM | ≥ 500 nM | CCCOc1c(-c2nc3ccccc3s2)ccc2c1CC[C@H](C)N2C(C)=O [I-120, (S)-1-(6-(benzo[d]thiazol-2-yl)-2-methyl-5-propoxy-3,4-dihydroquinolin-1(2H)-yl)ethanone]
3 | < 500 nM | 100 to 1000 nM | < 50 nM | COC(=O)N1c2ccc(-c3cnn(C4CNC4)c3)c(Oc3ccccc3C#N)c2CC[C@@H]1C [I-138, (S)-methyl 6-(1-(azetidin-3-yl)-1H-pyrazol-4-yl)-5-(2-cyanophenoxy)-2-methyl-3,4-dihydroquinoline-1(2H)-carboxylate]
4 | < 500 nM | 100 to 1000 nM | < 50 nM | CC(=O)N1c2ccc(-c3cnn(C4CC4)c3)c(OCC(C)(C)F)c2CC[C@@H]1C [I-67, (S)-1-(6-(1-cyclopropyl-1H-pyrazol-4-yl)-5-(2-fluoro-2-methylpropoxy)-2-methyl-3,4-dihydroquinolin-1 (2H)-yl)ethanone]
5 | < 500 nM | 1000 to 10000 nM | 50 to 500 nM | CC(=O)N1c2ccc(-c3cnn(C4CCNCC4)c3)c(Oc3cc(C4CC4)ncn3)c2CC[C@@H]1C [I-517]
6 | < 500 nM | 100 to 1000 nM | < 50 nM | CC(=O)N1c2ccc(-c3cnn(C4CC4)c3)c(Oc3ccc(F)cc3)c2CC[C@@H]1C [I-225, (S)-1-(6-(1-cyclopropyl-1H-pyrazol-4-yl)-5-(4-fluorophenoxy)-2-methyl-3,4-dihydroquinolin-1(2H)-yl)ethanone]
7 | < 500 nM | 100 to 1000 nM | < 50 nM | COC(=O)N1c2ccc(-c3cnn(C4CCNCC4)c3)c(Oc3ccccc3F)c2CC[C@@H]1C [I-259, (S)-methyl 5-(2-fluorophenoxy)-2-methyl-6-(1-(piperidin-4-yl)-1H-pyrazol-4-yl)-3,4-dihydroquinoline-1(2H)-carboxylate]
8 | < 500 nM | 100 to 1000 nM | 50 to 500 nM | CC(=O)N1c2ccc(-c3cnn(C4CCNCC4)c3)c(Oc3ncc(C4CC4)cn3)c2CC[C@@H]1C [I-518]
9 | 500 to 1000 nM | 100 to 1000 nM | 50 to 500 nM | CC(=O)N1c2ccc(-c3cnn(C4CC4)c3)c(OCC3(C)COC3)c2CC[C@@H]1C [I-395]
10 | < 500 nM | 100 to 1000 nM | < 50 nM | COC(=O)N1c2ccc(-c3cnn(C4CCNCC4)c3)c(Oc3ccccc3C#N)c2CC[C@@H]1C [I-137, methyl (S)-5-(2-cyanophenoxy)-2-methyl-6-(1-(piperidin-4-yl)-1H-pyrazol-4-yl)-3,4-dihydroquinoline-1(2H)-carboxylate]
11 | 500 to 1000 nM | 100 to 1000 nM | < 50 nM | COC(=O)N1c2ccc(-c3cnn(C4CC4)c3)c(OCC3CC3(F)F)c2CC[C@@H]1C (stereo partly drawn) [I-31, (2S)-methyl 6-(1-cyclopropyl-1H-pyrazol-4-yl)-5-((2,2-difluorocyclopropyl)methoxy)-2-methyl-3,4-dihydroquinoline-1(2H)-carboxylate]
12 | < 500 nM | 100 to 1000 nM | < 50 nM | C[C@H]1CCc2c(ccc(-c3cnn(C4CCNCC4)c3)c2Oc2ccc(F)c(Cl)c2)N1C(=O)C1CC1 [I-169, (S)-(5-(3-chloro-4-fluorophenoxy)-2-methyl-6-(1-(piperidin-4-yl)-1H-pyrazol-4-yl)-3,4-dihydroquinolin-1(2H)-yl)(cyclopropyl)methanone]
13 | < 500 nM | 100 to 1000 nM | < 50 nM | COC(=O)N1c2ccc(-c3cnn([C@H]4CCNC[C@H]4F)c3)c(Oc3ccc(F)cc3)c2CC[C@@H]1C [I-366, methyl (2 S)-5-(4-fluorophenoxy)-6-{1-[(3R,4S)-3-fluoropiperidin-4-yl]-1H-pyrazol-4-yl}-2-methyl-1,2,3,4-tetrahydroquinoline-1-carboxylate]
14 | > 1000 nM | 1000 to 10000 nM | 50 to 500 nM | COC(=O)N1c2ccc(-c3cnn(CCS(C)(=O)=O)c3)c(Oc3cnccn3)c2CC[C@@H]1C [I-558]
15 | 500 to 1000 nM | 1000 to 10000 nM | < 50 nM | CC(=O)N1c2ccc(-c3cnn(C4CC4)c3)c(OCC(F)F)c2CC[C@@H]1C [I-36, (S)-1-(6-(1-cyclopropyl-1H-pyrazol-4-yl)-5-(2,2-difluoroethoxy)-2-methyl-3,4-dihydroquinolin-1(2H)-yl)ethanone]
16 | < 500 nM | 100 to 1000 nM | 50 to 500 nM | CC(=O)N1c2ccc(-c3cnn(CCO)c3)c(Oc3ncc(C(F)(F)F)cn3)c2CC[C@@H]1C [I-542]
17 | > 1000 nM | ≥ 10000 nM | ≥ 500 nM | CCN1CC(Oc2c(-c3cnn(C4CC4)c3)ccc3c2CC[C@H](C)N3C(C)=O)C1 [I-253, (S)-1-(6-(1-cyclopropyl-1H-pyrazol-4-yl)-5-(1-ethylazetidin-3-yloxy)-2-methyl-3,4-dihydroquinolin-1(2H)-yl)ethanone]
18 | > 1000 nM | 1000 to 10000 nM | 50 to 500 nM | CCCOc1c(-c2nc3ccccc3o2)ccc2c1CC[C@H](C)N2C(C)=O [I-117, (S)-1-(6-(benzo[d]oxazol-2-yl)-2-methyl-5-propoxy-3,4-dihydroquinolin-1(2H)-yl)ethanone]

Row | SMILES | IC50 [1] | IC50 [2] | IC50 [3]
19 | C[C@H]1CCc2c(ccc(-c3cn(C)nn3)c2OC2CCC2)N1C(=O)C1CC1 [I-53, (S)-(5-cyclobutoxy-2-methyl-6-(1-methyl-1H-1,2,3-triazol-4-yl)-3,4-dihydroquinolin-1 (2H)-yl)(cyclopropyl)methanone] | < 500 nM | 100 to 1000 nM | < 50 nM
